Key:
[1] = target: KRAS-PI3Kα interaction (KRAS-Q25A binding to avi-tagged full length PI3Kα) (Homo sapiens (Human), UniProt P42336); experiment: Disrupting KRAS-PI3Kα interaction by SPR inhibition assay; details: KRAS-Q25A at 20 μM, 25° C.
[2] = target: Cys242 in human PIK3CA (157-299) (Homo sapiens (Human), UniProt P42336); experiment: Covalent modification assay using MALDI-TOF MS; type: biochemical; details: 4 h reaction time point; 3.33 μM protein target, 1:7.5 protein to compound ratio (compounds 1-852)
Procedure, shortened: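 PIK3CA (157-299), 3.33 or 1 μM in 20 mM HEPES, 150 mM NaCl, 2 mM MgCl2, pH 7.3, was incubated with compound at room temperature in the dark for 15 min, 30 min, 2 h or 4 h. Linear MALDI-TOF read-out; % modification = adduct peak height over summed heights of all protein species.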

Chain of KRAS-PI3Kα interaction (KRAS-Q25A binding to avi-tagged full length PI3Kα) (P42336 whole entry, looked up, stated change not applied): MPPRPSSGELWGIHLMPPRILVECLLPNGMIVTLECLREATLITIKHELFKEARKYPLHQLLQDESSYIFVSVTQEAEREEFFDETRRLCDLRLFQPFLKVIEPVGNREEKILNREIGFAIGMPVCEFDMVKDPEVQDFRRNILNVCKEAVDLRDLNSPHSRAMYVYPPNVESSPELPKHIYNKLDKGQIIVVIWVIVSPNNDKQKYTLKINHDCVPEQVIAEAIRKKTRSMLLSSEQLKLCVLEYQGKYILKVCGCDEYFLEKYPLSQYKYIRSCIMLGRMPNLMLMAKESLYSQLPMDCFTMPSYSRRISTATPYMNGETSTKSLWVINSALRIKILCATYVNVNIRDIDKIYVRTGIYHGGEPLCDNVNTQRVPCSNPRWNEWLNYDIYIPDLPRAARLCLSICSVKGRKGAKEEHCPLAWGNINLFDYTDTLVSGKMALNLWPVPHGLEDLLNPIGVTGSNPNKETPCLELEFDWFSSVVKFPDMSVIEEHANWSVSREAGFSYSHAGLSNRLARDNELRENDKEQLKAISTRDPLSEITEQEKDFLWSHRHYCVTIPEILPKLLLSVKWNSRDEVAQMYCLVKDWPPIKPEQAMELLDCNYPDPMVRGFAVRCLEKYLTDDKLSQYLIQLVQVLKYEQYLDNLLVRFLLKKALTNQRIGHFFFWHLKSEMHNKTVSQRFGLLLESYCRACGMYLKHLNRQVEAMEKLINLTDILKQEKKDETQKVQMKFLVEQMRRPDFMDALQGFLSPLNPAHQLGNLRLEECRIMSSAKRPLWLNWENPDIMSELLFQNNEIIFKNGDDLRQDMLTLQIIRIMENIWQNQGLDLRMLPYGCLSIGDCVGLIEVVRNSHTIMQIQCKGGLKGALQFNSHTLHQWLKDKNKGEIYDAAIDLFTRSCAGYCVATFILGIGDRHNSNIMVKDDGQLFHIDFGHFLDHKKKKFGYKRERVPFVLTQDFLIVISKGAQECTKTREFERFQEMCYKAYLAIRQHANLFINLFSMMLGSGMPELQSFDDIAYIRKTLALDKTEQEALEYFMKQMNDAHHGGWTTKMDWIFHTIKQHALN
Chain of KRAS-PI3Kα interaction (KRAS-Q25A binding to avi-tagged full length PI3Kα) (P27986 whole entry partner, looked up): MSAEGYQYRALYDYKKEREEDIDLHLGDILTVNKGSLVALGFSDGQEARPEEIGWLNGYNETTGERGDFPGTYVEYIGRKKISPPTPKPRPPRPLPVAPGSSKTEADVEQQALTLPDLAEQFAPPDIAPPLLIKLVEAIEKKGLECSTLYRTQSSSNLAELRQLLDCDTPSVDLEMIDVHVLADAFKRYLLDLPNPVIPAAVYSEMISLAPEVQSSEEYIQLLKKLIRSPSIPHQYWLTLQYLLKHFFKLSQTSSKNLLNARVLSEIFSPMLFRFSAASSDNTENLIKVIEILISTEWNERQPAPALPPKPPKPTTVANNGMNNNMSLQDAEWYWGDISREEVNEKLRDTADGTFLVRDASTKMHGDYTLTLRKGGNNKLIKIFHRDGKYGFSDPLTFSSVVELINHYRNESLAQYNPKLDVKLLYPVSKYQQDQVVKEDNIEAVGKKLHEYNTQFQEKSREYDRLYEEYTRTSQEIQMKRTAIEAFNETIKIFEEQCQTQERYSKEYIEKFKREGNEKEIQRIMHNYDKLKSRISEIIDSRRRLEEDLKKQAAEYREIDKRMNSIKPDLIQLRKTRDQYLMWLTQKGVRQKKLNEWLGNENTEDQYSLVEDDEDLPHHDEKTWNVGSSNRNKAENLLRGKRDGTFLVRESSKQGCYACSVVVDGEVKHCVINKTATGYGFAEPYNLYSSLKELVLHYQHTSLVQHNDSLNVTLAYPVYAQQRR
Chain of Cys242 in human PIK3CA (157-299) (P42336 157-299): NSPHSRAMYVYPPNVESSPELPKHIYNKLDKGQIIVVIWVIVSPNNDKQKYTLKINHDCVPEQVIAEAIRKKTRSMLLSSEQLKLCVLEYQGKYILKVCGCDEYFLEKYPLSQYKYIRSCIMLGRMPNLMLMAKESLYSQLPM

Row | Compound | IC50 [1] [µM] | % of modification [2]
1 | C=CC(=O)Nc1cccc(-c2nc(-c3ccc4c(c3)CCNC4)c3ccsc3c2-c2ccc(F)cc2OCCOC)c1 [Compound 12, N-[3-[7-[4-fluoro-2-(2-methoxyethoxy)phenyl]-4-(1,2,3,4-tetrahydroisoquinolin-6-yl)thieno[3,2-c]pyridin-6-yl]phenyl]prop-2-enamide] | < 5 | A (percent of modification of PIK3CA protein ≥75%)
2 | C=CC(=O)N1CCc2nc(-c3nc(-c4ccc5c(c4)CCNC5)c4ccsc4c3-c3ccc(F)cc3OCCOC)sc2C1 [Compound 58, 1-[2-[7-[4-fluoro-2-(2-methoxyethoxy)phenyl]-4-(1,2,3,4-tetrahydroisoquinolin-6-yl)thieno[3,2-c]pyridin-6-yl]-6,7-dihydro-4H-thiazolo[5,4-c]pyridin-5-yl]prop-2-en-1-one] | 5 to 25 | A (percent of modification of PIK3CA protein ≥75%)
3 | C=CC(=O)Nc1cccc(-c2nc(-c3ccc4c(c3)CNC(=O)C4)c3ccsc3c2-c2ccc(F)cc2OCCOC)c1 [compound 51] | 5 to 25 | A (percent of modification of PIK3CA protein ≥75%)

Second part, led by results:

Row | IC50 [1] [µM] | Compound | % of modification [2]
4 | 5 to 25 | C=CC(=O)N1CC(n2cc(-c3nc(-c4ccc5c(c4)CCNC5)c4ccsc4c3-c3ccc(F)cc3OCCOC)cn2)C1 [Compound 44, 1-[3-[4-[7-[4-fluoro-2-(2-methoxyethoxy)phenyl]-4-(1,2,3,4-tetrahydroisoquinolin-6-yl)thieno[3,2-c]pyridin-6-yl]pyrazol-1-yl]azetidin-1-yl]prop-2-en-1-one] | A (percent of modification of PIK3CA protein ≥75%)
5 | < 5 | C=CC(=O)N1CCCC(n2cc(-c3nc(-c4ccc5c(c4)CCNC5)c4ccsc4c3-c3ccc(F)cc3OCCOC)cn2)C1 (centres unmarked) [compound 31] | A (percent of modification of PIK3CA protein ≥75%)
6 | < 5 | C=CC(=O)N1CCc2ccc(-c3nc(-c4ccc5c(c4)CCNC5)c4ccsc4c3-c3ccc(F)cc3OCCOC)cc2C1 [compound 42] | A (percent of modification of PIK3CA protein ≥75%)
7 | 5 to 25 | C=CC(=O)N1CC[C@H](n2cc(-c3nc(-c4ccc5c(c4)CCNC5)c4ccsc4c3-c3ccc(F)cc3OCCOC)cn2)C1 [compound 47] | A (percent of modification of PIK3CA protein ≥75%)

— patent US20250230138A1, “COMPOUNDS HAVING A T-STRUCTURE FORMED BY AT LEAST FOUR CYCLES FOR USE IN THE TREATMENT OF CANCER AND OTHER INDICATIONS” (TheRas, Inc., priority 2022, published 2025)
